In patent US9586880B2, “Small molecule inhibitors of necroptosis” (President and Fellows of Harvard College, priority 2008, dated 2017):

Assays:
[1] = tested on: FADD-deficient variant of human Jurkat T cells; assay: TNF-α induced necroptosis inhibition, ATP-based viability assessment; format: cell-based; details: 10 ng/mL human TNF-α, 24 hours, CellTiter-Glo viability; for EC50: Jurkat
Protocol: (§1) Evaluation of necroptosis inhibitory activity was performed using a FADD-deficient variant of human Jurkat T cells or with L929 cells treated with TNF-α as previously described (Degterev et al., Nat. Chem. Biol. 1:112 (2005) and Jagtap et al., J. Med. Chem. 50: 1886 (2007)). Utilizing these conditions the cells efficiently underwent necroptosis. For EC50 value determinations, cells were treated with 10 ng/mL of human TNF-α in the presence of increasing concentration of test compounds for 24 hours followed by ATP-based viability assessment.
(§2) ATP-based viability assessment: Briefly, necroptosis activity was performed using a FADD-deficient variant of human Jurkat T cells or L929 cells treated with TNF-α. For EC50 value determinations, cells (500,000 cells/mL, 100 μL per well in a 96-well plate) were treated with 10 ng/mL of human TNF-α in the presence of increasing concentration of test compounds for 24 hours at 37° C. in a humidified incubator with 5% CO2 followed by ATP-based viability assessment. Stock solutions (30 mM) in DMSO were initially prepared and then diluted with DMSO to give testing solutions, which were added to each test well. The final DMSO concentration was 0.5%. Eleven compound test concentrations (0.030-100 μM) were used. Each concentration was done in duplicate.
(§3) Cell viability assessments were performed using a commercial luminescent ATP-based assay kit (CellTiter-Glo, Promega, Madison, Wis.) according to the manufacturer's instructions. Briefly, 40 μL of the cell lysis/ATP detection reagent was added to each well. Plates were incubated on a rocking platform for 10 minutes at room temperature and luminescence was measured using a Wallac Victor 3 plate-reader (Perkin Elmer, Wellesley, Mass.). Cell viability was expressed as a ratio of the signal in the well treated with TNF-α and compound to the signal in the well treated with compound alone. This was done to account for nonspecific toxicity, which in most cases was <10%. EC50 values were calculated using nonlinear regression analysis of sigmoid dose-response (variable slope) curves from plots of log [I] verses viability values.

[2] = tested on: L929 cells; assay: as above; format: cell-based; details: 10 ng/mL human TNF-α, 24 hours, CellTiter-Glo viability; for EC50: Mus musculus, L929
Protocol: as §1, §2, §3

Row | SMILES | EC50 [1] | EC50 Fadd −/− Jurkat [1] | other results
1 | COc1cc(C2CC(=O)NC(SCC(=O)Nc3nccs3)=C2C#N)cc(OC)c1OC (stereo not drawn) [(1)] | 0.477 µM |  | EC50 [2]: 0.197 µM
2 | N#CC1=C(SCC(=O)Nc2nccs2)NC(=O)CC1c1ccccc1F (stereo not drawn) [(2)] | 0.769 µM |  | 
3 | N#CC1=C(SCC(=O)Nc2nccs2)NC(=O)CC1c1ccc(Cl)cc1 (stereo not drawn) [(3)] | 0.823 µM |  | 
4 | COc1ccc(C2CC(=O)NC(SCC(=O)Nc3nccs3)=C2C#N)cc1OC (stereo not drawn) [(4)] | 0.354 µM |  | 
5 | COC(=O)C1C(=O)NC(SCC(=O)Nc2nccs2)=C(C#N)C1c1ccc(Cl)cc1 (stereo not drawn) [(5)] | 25 µM |  | 
6 | N#CC1=C(SCC(=O)Nc2nccs2)NC(=O)CC1c1ccccc1 (stereo not drawn) [(6)] |  | Partial activity | 
7 | COc1ccccc1C1CC(=O)NC(SCC(=O)Nc2nccs2)=C1C#N (stereo not drawn) [(7)] | 2.38 µM |  | 
8 | N#CC1=C(SCC(N)=O)NC(=O)CC1c1ccccc1 (stereo not drawn) [(8)] |  | inactive | 
9 | COc1ccc(NC(=O)CSC2=C(C#N)C(c3cc(OC)c(OC)c(OC)c3)CC(=O)N2)cc1 (stereo not drawn) [(9)] |  | inactive | 
10 | COc1cc(C2CC(=O)NC(SCC(=O)Nc3ccccc3)=C2C#N)cc(OC)c1OC (stereo not drawn) [(10)] |  | inactive | 
11 | COc1cc(C2CC(=O)NC(SCC(=O)Nc3ccc(F)cc3)=C2C#N)cc(OC)c1OC (stereo not drawn) [(11)] |  | inactive | 
12 | COc1cc(C2CC(=O)NC(SCC(=O)Nc3c(C)cc(C)cc3C)=C2C#N)cc(OC)c1OC (stereo not drawn) [(12)] |  | inactive | 
13 | O=C(Nc1ccccc1)N1N=CCC1c1ccccc1 (stereo not drawn) [(17)] |  | inconclusive | 
14 | CCN1CCN(CC(=O)N2N=CCC2c2ccccc2)CC1 (stereo not drawn) [(18)] | 0.41 µM |  | 
15 | Cc1ccc(C(=O)C2=NNCC2c2ccccc2)cc1 (stereo not drawn) [(19)] | 0.369 µM |  | 
16 | O=C(CSc1ccc(Cl)cc1)N1N=CCC1c1ccccc1 (stereo not drawn) [(20)] | 3.21 µM |  | 
17 | O=C(CSc1nc2ccccc2s1)N1N=CCC1c1ccccc1 (stereo not drawn) [(21)] | 1.56 µM |  | 
18 | Clc1ccc(-c2cc[nH]n2)cc1 [(22)] |  | Inactive | 
19 | CCOC(=O)C1NN=C(C(=O)c2ccccc2)C1c1ccccc1 (stereo not drawn) [(23)] |  | Inactive | 
20 | CCOC(=O)C1=NNC(C(=O)c2ccccc2)C1c1ccc(Cl)cc1 (stereo not drawn) [(24)] |  | Inactive | 
21 | Cn1ccnc1SCC(=O)N1N=CCC1c1ccccc1 (stereo not drawn) [(25)] |  | Inactive | 
22 | Cc1ccc2nc(SCC(=O)N3N=CCC3c3ccccc3)nc(C)c2c1 (stereo not drawn) [(26)] |  | Inactive | 
23 | C#CC1(O)c2ccccc2C=Cc2ccccc21 [(28)] | 2.98 µM |  | 

Row | SMILES | EC50 [1] | EC50 Fadd −/− Jurkat [1] | other results
24 | C#CC(O)(c1ccccc1)c1ccccc1 [(29)] | 31.8 µM |  | 
25 | CCC1(O)c2ccccc2CCc2ccccc21 [(30)] | 5.83 µM |  | 
26 | C=CC1(O)c2ccccc2CCc2ccccc21 [(31)] | 2.95 µM |  | 
27 | C#CC1(O)c2ccccc2CCc2ccc(F)cc21 (stereo not drawn) [(32)] | 2 µM |  | 
28 | C#CC1(O)c2ccccc2CCc2c(F)cccc21 (stereo not drawn) [(33)] | 4.79 µM |  | 
29 | C#CC1(O)CCCCCC1 [(34)] |  | Inactive | 
30 | C#CC1(O)c2ccccc2-c2ccccc21 [(35)] |  | Inactive | 
31 | C#CC1(OC)c2ccccc2CCc2ccccc21 [(36)] |  | Inactive | 
32 | C=C(Br)C1(Br)c2ccccc2CCc2ccccc21 [(37)] |  | Inactive | 
33 | C=C(Cl)C1(Cl)c2ccccc2CCc2ccccc21 [(38)] |  | Inactive | 
34 | OC1(C#CBr)c2ccccc2CCc2ccccc21 [(39)] |  | Inactive | 
35 | CC#CC1(O)c2ccccc2CCc2ccccc21 [(40)] |  | Inactive | 
36 | C#CC1(O)c2ccccc2CCc2c1ccc1ccccc21 (stereo not drawn) [(41)] |  | Inactive | 
37 | C#CC1(O)c2cc(I)ccc2CCc2ccc(I)cc21 [(42)] |  | Inactive | 
38 | C#CC1(O)c2cc([N+](=O)[O-])ccc2CCc2ccc([N+](=O)[O-])cc21 [(43)] |  | Inactive | 
39 | C#CC1(O)c2ccccc2CCc2ccc(Br)cc21 (stereo not drawn) [(44)] |  | Inactive | 
40 | C#CC1(O)c2ccccc2CCc2ccc(Cl)cc21 (stereo not drawn) [(45)] |  | Inactive | 
41 | C#CC1(O)c2ccccc2CCc2ccc(C)cc21 (stereo not drawn) [(46)] |  | Inactive | 
42 | CC(C)(O)C#CC1(O)c2ccccc2CCc2ccccc21 [(47)] |  | Inactive | 
43 | Cc1sc2ncn(Cc3ccccc3)c(=O)c2c1C [(49)] | 3.8 µM |  | 
44 | O=c1c2c3c(sc2ncn1Cc1cccc2cccnc12)CCC3 [(50)] | > 30 µM |  | 
45 | COc1ccc(F)cc1Cn1cnc2sc3c(c2c1=O)CCC3 [(51)] | 10.9 µM |  | 
46 | COc1ccc(Cn2cnc3sc4c(c3c2=O)CCC4)cc1F [(52)] | 3.05 µM |  | 

Row | SMILES | EC50 [1] | EC50 Fadd −/− Jurkat [1] | other results
47 | O=c1c2c3c(sc2ncn1Cc1cccc2ccccc12)CCC3 [(53)] | > 30 µM |  | 
48 | N#Cc1ccc(Cn2cnc3sc4c(c3c2=O)CCC4)cc1 [(54)] | 0.861 µM |  | 
49 | O=c1cc(Cn2cnc3sc4c(c3c2=O)CCC4)c2ccccc2[nH]1 [(55)] | > 30 µM |  | 
50 | O=c1c2ccccc2ncn1Cc1ccc(Cl)cc1 [(56)] | > 30 µM |  | 
51 | O=c1c2c3c(sc2ncn1Cc1c(Cl)cccc1Cl)CCC3 [(57)] | 0.936 µM |  | 
52 | CCSCC(=O)Nc1ccc(F)cc1 [(64)] | 14.1 µM |  | EC50 L929 [2]: Inactive
53 | Cc1ccc(Cn2ncc3ccccc32)cc1 [(65)] | 3.62 µM |  | EC50 L929 [2]: Inactive
54 | Cc1ccc(CN(C)C(=O)C2CCCCC2)o1 [(66)] | 2.62 µM |  | EC50 [2]: 47.1 µM
55 | CNC(Cc1ccccc1)=C1C(=O)CC(C)(C)CC1=O [(67)] | 2.25 µM |  | EC50 [2]: 10 µM
56 | CNS(=O)(=O)c1cccc(C(=O)OCC(=O)N2CCCc3ccccc32)c1 [(68)] | 1.63 µM |  | EC50 L929 [2]: Inactive
57 | O=C(NCc1cccs1)C1CCCCC1 [(69)] | 7.72 µM |  | EC50 L929 [2]: Inactive
58 | Cc1s/c(=N\C(=O)C2=NNC(=O)CC2)[nH]c1-c1ccc(F)cc1 [(70)] | 0.908 µM |  | EC50 L929 [2]: Inactive
59 | CC(C)(C)OC(=O)Nc1ccc(-c2cc[nH]n2)cc1 [Compound (13)] | 5.38 µM |  | EC50 [2]: 0.89 µM
60 | O=C(N1N=CCC1c1ccccc1)C12CC3CC(CC(C3)C1)C2 (stereo not drawn) [Compound (14)] | 0.41 µM |  | EC50 [2]: 4.2 µM
61 | O=C(C1=NNCC1c1ccccc1)c1ccccc1 (stereo not drawn) [Compound (15)] | 0.369 µM |  | EC50 [2]: 4.02 µM
62 | O=C(CSc1nnnn1-c1ccccc1)N1N=CCC1c1ccccc1 (stereo not drawn) [Compound (16)] | 0.629 µM |  | EC50 [2]: 73 µM
63 | C#CC1(O)c2ccccc2CCc2ccccc21 [Compound (27)] | 3.23 µM |  | EC50 [2]: 0.659 µM
64 | O=c1c2c3c(sc2ncn1Cc1ccccc1)CCC3 [Compound (48)] | 0.216 µM |  | EC50 [2]: 8.66 µM
65 | CCN(CC)S(=O)(=O)c1ccc(C(=O)/N=c2\[nH]ccs2)cc1 [Compound (58)] | 8.96 µM |  | EC50 [2]: 1.11 µM
66 | O=C1NC(Cc2c[nH]c3ccccc23)C(=O)N1Cc1ccc(Cl)cc1 (stereo not drawn) [Compound (59)] | 0.343 µM |  | EC50 [2]: 7.46 µM
67 | O=C(C1COc2ccccc2O1)N1CCc2ccccc21 (stereo not drawn) [Compound (60)] | 0.629 µM |  | EC50 [2]: 23 µM
68 | O=C(COc1ccccc1)N1CCc2ccccc21 [Compound (61)] |  | Inactive | 
69 | c1ccc(C2CC3CC4(CCCC4)N2O3)cc1 (stereo not drawn) [Compound (62)] | 0.668 µM |  | EC50 [2]: 10.1 µM
